# Like-named read-outs stand apart in the source and are kept apart here. Where no end group is shown, it is not given here.
# Key:
# non-mutated CFTR = molecular target: T1, non-mutated CFTR (Homo sapiens, UniProt P13569); assay: Ussing chamber short-circuit current (ion transport via CFTR); type: cell-based; conditions: for effect of Inh172 on cell potential: CFTR inh172 10 μM; for short circuit current differential after addition of tritoqualine: tritoqualine 10 μM
# T1 construct: host or cells: human epithelial cells (called glandular / lacrimal gland epithelial cells) grown on Snapwell filters
# Description: To investigate this action on CFTR modulation, the inventors used the Ussing chamber method, invented by the Dane Hans H. Ussing in the late 1950s. This technique makes it possible to study ionic exchanges across an epithelium, as it allows the tissue of interest to be kept alive for a few hours under controlled conditions of temperature and medium. The positioning of the tissue between two half-chambers makes it possible to define an apical compartment (corresponding to the lumen of the organ) and a basolateral compartment (corresponding to the blood compartment) and to investigate exchanges between these two compartments via the tissue.
# This technique is used as a routine and is particularly well adapted for a pharmacological approach to ionic transport and to search for molecules of therapeutic interest in the context of ionic secretions of epithelial cells. It consists in measuring the transepithelial current (known as the short-circuit current and noted Ise). Ise is expressed in amperes to unit area of the epithelium (Ise in μA/cm^2). The cells are grown on a porous filter for 10 to 15 days at the liquid-liquid interface and then air-liquid interface in order to mimic conditions close to in vivo. The transepithelial resistance is measured regularly when culturing. The higher this resistance is (several hundred ohms), the more the epithelial tissue is junctive, polarised and therefore tight. At the air (apical side)-liquid (basolateral side) interface the epithelial cells polarise and form a tight mat which can be investigated with the Ussing chamber technique. A system with 6 Physiology Instrument® cuvettes allowing 6 experiments in parallel has been used.
# The inventors have used USSING chambers to analyse the activity of tritoqualine on CFTR of glandular epithelial cells.
# Typical protocols used for human epithelial cells expressing non-mutated CFTR:
# Measurement of short circuit current in the presence of amiloride (ENaC channel inhibitor, 100 μM) followed by addition of 10 μM of the tritoqualine molecule and then addition of CFTR inh172 (10 μM, CFTR inhibitor) followed by addition of UTP (100 μM, validates the experiment by activating the calcium-sensitive Cl transport).
# Measurement of short circuit current in the presence of amiloride (100 μM) and forskolin (0.05 μM activator of intracellular cAMP) then addition of 10 μM of the tritoqualine molecule then addition of CFTRinh172 (10 μM) then addition of UTP (100 μM).
# Measurement of the short circuit current in the presence of CFTR Inh172 (10 μM) then addition of tritoqualine and forskolin (0.05 μM) then addition of UTP.
# The inventors have prepared a 100 μM stock solution in DMSO. The compounds have been aliquoted per 100 μL and stored at −20° C.
# Tritoqualine has been added to USSING cells at a dose of 10 μM in non-mutated cells FIG. 5.
# NK 1 receptor = molecular target: T2, NK 1 receptor (Homo sapiens, UniProt P25103); assay: NK 1 receptor binding (method of Heuillet et al.); conditions: FIG. 8
# T2 construct: human NK1 tachykinin receptor in the astrocytoma cell line U 373 MG; endogenous in cells; host or cells: U 373 MG human astrocytoma cells (per the cited method)
# Experimental: Tritoqualine has been tested on the NK 1 receptor according to the method described by Heuillet et al., Characterization of a human NK1 tachykinin receptor in the astrocytoma cell line U 373 MG. Heuillet E et al. Neurochem. 1993 March.
# basophils = assay: Flow CAST basophil degranulation (CD63+/CCR3+ flow cytometry); type: cell-based, human
# Description: The inventors have used the Kit-Flow CAST (www.buhlmannlabs.ch/products-solutions/cellular-allergy/flow-cast/) to test the action of tritoqualine on the inhibition of basophil degranulation. The marker for degranulation is CD63. Upon basophil activation, CD63 markers bound to intracytoplasmic granules will fuse with the plasma membrane. They are then expressed on the cell surface: activated basophils thereby become CD63+. Further to CD63, another marker specific to basophils makes it possible to better target them, it is CCR3 (chemokine receptor 3). The latter is always expressed by this cell type. Thus, the degranulation of basophils is identified in the flow cytometry window as CD63+ and CCR3+.
# In a first step 2 patients have been sampled. substance P has been tested at a dose of 10 μmoles.
# After 30 minutes, degranulation in each of the tubes is around 7% as with the negative control.
# [1] = cited from earlier work
# histidine decarboxylase = molecular target: T3, histidine decarboxylase (Homo sapiens, UniProt P19113); conditions: known anti-allergic activity; cited from earlier work
# T3 sequence (P19113 1-662): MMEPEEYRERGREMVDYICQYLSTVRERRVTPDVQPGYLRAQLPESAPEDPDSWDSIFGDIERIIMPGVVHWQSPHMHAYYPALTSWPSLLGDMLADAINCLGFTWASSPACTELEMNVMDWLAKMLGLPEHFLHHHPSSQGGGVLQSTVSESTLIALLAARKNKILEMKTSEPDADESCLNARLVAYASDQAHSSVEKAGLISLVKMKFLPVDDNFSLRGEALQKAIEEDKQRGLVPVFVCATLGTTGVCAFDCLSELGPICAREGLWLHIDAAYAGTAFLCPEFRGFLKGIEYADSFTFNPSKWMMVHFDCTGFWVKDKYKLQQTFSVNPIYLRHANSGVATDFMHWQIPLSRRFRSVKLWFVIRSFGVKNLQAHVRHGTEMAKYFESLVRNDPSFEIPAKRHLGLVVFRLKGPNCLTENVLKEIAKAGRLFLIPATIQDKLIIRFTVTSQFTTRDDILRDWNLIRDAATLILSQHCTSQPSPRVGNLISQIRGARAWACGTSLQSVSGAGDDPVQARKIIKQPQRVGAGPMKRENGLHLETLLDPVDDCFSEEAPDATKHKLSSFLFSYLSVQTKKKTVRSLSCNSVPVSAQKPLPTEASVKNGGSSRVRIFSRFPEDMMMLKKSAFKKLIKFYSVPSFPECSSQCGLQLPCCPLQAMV
# T1 sequence (P13569 whole entry, change not shown): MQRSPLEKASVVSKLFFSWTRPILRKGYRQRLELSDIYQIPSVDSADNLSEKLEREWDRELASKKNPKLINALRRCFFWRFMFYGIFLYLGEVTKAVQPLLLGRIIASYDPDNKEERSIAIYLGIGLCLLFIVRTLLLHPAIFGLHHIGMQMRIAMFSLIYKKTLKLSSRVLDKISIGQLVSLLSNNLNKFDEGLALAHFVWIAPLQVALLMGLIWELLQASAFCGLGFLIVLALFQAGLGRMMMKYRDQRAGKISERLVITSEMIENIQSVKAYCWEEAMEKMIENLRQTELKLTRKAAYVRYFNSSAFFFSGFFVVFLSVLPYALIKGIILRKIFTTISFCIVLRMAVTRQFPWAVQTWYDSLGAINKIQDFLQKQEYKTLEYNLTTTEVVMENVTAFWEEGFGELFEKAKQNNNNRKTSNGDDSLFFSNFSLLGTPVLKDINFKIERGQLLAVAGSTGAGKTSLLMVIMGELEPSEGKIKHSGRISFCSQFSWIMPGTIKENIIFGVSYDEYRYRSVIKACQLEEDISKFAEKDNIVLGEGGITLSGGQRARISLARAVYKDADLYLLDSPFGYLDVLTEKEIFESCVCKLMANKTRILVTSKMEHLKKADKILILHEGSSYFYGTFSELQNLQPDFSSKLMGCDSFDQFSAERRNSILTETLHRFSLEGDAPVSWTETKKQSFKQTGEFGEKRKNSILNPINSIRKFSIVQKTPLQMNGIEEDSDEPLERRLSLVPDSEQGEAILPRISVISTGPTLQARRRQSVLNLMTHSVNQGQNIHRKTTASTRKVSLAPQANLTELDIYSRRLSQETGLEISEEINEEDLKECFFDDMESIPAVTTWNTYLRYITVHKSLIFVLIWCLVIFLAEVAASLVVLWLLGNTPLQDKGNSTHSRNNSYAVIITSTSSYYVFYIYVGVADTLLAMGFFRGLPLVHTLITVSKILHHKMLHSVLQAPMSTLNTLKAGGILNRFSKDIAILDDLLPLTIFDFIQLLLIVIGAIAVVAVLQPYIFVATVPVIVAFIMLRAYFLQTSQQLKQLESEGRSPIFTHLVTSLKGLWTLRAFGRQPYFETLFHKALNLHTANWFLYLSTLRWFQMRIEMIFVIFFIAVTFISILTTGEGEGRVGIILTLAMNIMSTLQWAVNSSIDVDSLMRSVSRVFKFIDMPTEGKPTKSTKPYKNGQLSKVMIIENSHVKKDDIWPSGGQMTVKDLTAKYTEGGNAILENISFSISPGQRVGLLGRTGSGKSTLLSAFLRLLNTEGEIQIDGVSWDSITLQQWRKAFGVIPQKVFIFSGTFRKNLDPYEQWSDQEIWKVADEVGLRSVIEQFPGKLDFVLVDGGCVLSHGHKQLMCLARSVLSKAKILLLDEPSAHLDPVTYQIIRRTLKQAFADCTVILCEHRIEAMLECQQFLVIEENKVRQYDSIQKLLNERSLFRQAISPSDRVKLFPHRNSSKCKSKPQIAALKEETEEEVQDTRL
# T2 sequence (P25103 whole entry): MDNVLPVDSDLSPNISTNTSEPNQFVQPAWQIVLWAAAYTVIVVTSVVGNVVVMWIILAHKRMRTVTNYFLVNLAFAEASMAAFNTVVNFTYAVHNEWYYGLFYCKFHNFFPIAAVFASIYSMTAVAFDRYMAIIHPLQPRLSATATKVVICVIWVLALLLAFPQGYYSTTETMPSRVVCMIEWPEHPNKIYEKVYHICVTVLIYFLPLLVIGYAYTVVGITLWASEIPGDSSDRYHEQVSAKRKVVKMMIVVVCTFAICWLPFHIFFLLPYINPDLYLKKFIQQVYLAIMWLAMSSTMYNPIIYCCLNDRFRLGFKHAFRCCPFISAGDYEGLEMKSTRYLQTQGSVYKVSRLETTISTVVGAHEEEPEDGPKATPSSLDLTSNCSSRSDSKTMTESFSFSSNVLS
molecule,measurement,setting,value
O=C(O)c1ccc(C=C2SC(=S)N(c3cccc(C(F)(F)F)c3)C2=O)cc1 [Inh172],effect of Inh172 on cell potential,"non-mutated CFTR; non-mutated epithelial cells, apical side",completely blocks
same,effect of Inh172 on cell potential,non-mutated CFTR; non-mutated lacrimal gland epithelial cells (second experiment),completely blocks
"CCOc1c(N)c2c(c(OCC)c1OCC)C(C1c3c(cc4c(c3OC)OCO4)CCN1C)OC2=O (stereo not drawn) [tritoqualine, AMINO-7 TRIETHOXY-4,5,6 OXO-1 DIHYDRO-1,3 ISOBENZOFURANNYL-3)-1METHOXY-8METHYL-2METHYLENEDIOXY-6,7TETRAHYDRO-,2,3,4ISOQUINOLINE]",EC50,"non-mutated CFTR; apical pole, FIG. 2, read-out: EC50 activity, apical pole",3.42 µM
same,EC50,"non-mutated CFTR; basal pole, FIG. 3, read-out: EC50, basal pole",4.87 µM
same,short circuit current differential after addition of tritoqualine,"non-mutated CFTR; non-mutated epithelial cells, apical side, increases from 16",more than 20 μA/cm^2
same,short circuit current differential after addition of tritoqualine,"non-mutated CFTR; non-mutated lacrimal gland epithelial cells, printed 'apical side' (second experiment), increases from 6.5",more than 7.5 μA/cm^2
same,affinity (percent inhibition) on NK 1 receptor,NK 1 receptor,97%
same,degranulation after substance P in presence of tritoqualine,"basophils; tritoqualine 10 pmoles (FIG. 10: 10 μM), then substance P, after 30 minutes, as with the negative control",around 7%
same,solubility in benzene and acetone,[1]; benzene and acetone,sparingly soluble
same,solubility in water,[1]; water,Insoluble
same,inhibitory action on histidine decarboxylase,histidine decarboxylase,very weak
"substance P: NK 1 agonist (supplier Sigma-Aldrich) (RPKPQQFFGLM-NH2; UniProt P20366 58-68, looked up)",CD63 present on the basophil (degranulation),"basophils; substance P at 10 μmoles, basophils of 2 patients",70%
